The values that follow come from the Kinase Knowledgebase extract (Sharma et al. 2016).

For one test, the target named is PIK3CA (human) (UniProt P42336). The test is described as follows: Assessment of PIK3CA Kinase Activity.
The target in the next test is PIK3CG (human) (UniProt P48736). The experiment in a line: Assessment of PIK3CG Kinase Activity.
PIK3CG (human), sequence (P48736 whole entry, looked up): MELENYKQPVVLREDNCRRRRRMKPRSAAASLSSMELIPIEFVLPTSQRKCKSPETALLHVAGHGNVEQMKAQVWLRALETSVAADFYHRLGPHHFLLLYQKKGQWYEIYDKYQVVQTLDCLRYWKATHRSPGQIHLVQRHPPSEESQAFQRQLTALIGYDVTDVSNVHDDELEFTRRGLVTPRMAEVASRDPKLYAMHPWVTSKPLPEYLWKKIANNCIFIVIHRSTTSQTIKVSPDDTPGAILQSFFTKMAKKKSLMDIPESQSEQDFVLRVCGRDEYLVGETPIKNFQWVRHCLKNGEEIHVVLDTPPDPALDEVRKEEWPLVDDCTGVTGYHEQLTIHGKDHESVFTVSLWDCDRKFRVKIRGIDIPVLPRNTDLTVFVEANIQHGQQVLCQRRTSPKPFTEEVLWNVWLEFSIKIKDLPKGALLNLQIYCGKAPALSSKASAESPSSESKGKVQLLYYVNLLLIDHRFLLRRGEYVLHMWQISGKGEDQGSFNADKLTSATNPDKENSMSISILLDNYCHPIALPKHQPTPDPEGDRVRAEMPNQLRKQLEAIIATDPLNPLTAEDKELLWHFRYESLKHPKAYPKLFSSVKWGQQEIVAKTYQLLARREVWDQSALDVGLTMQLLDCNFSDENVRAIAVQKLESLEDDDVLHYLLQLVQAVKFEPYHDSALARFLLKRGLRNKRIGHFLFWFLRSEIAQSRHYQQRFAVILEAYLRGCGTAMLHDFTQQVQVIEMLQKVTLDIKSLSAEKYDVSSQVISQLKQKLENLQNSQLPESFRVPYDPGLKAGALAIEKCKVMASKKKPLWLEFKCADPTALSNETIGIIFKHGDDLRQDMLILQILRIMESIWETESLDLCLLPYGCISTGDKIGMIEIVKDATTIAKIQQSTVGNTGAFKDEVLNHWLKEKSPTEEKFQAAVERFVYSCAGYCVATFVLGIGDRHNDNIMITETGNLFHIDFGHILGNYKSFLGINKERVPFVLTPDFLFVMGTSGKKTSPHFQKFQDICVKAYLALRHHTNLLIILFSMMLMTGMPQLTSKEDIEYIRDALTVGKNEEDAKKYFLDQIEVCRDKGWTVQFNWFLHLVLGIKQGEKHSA

PIK3CA (human), sequence (P42336 whole entry, looked up): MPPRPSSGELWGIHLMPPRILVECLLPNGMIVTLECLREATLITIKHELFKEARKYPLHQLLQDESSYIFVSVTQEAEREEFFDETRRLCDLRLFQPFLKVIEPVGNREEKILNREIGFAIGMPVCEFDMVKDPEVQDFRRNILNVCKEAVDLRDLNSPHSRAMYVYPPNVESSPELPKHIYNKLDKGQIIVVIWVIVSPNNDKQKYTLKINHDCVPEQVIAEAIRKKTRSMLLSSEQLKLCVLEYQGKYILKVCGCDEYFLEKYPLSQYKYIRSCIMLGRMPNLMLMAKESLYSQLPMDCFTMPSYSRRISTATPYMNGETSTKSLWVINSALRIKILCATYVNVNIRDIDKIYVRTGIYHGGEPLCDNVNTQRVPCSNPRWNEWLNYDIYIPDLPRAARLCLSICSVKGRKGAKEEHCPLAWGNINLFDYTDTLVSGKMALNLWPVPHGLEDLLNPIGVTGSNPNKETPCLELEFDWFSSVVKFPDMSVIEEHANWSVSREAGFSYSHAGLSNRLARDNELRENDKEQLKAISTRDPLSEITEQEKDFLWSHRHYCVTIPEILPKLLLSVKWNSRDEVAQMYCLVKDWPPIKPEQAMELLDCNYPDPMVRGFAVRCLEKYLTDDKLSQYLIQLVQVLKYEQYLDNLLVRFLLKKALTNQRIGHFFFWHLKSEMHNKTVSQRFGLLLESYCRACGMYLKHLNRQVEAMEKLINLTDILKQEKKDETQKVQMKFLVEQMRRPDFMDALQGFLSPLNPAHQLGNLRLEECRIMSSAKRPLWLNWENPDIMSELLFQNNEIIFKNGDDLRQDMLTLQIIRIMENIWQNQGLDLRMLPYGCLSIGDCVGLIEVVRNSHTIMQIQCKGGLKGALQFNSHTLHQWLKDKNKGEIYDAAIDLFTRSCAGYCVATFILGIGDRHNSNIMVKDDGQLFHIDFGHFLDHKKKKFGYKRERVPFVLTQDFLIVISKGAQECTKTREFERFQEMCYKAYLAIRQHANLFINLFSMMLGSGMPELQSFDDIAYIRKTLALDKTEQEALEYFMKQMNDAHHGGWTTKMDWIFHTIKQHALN

Regarding `CCN(CC)C(=O)c1cccc(Nc2nc3ccc(-c4cncc(OC)c4)cc3s2)n1`, the Ki (commonly the dissociation constant of the complex between target and ligand, obtained from inhibition or displacement) at PIK3CA (human) was less than 100 nM.

For the compound `FC(F)(F)c1cncc(-c2ccc3nc(Nc4ccncn4)sc3c2)c1`, the Ki on PIK3CG (human) and on PIK3CA (human) was less than 100 nM each time.

Turning to `COc1cc(-c2ccc3nc(Nc4cccnc4)sc3c2)cnc1OC`, the Ki on PIK3CG (human) and at PIK3CA (human) was less than 100 nM throughout.

For `COc1cc(-c2ccc3nc(Nc4ncccn4)sc3c2)cnc1OC`, the Ki on PIK3CG (human) and on PIK3CA (human) was less than 100 nM in each case.

On PIK3CG (human), `CCCCNS(=O)(=O)c1cccc(Nc2nc3ccc(-c4cncc(OC)c4)cc3s2)c1` registered a Ki of less than 100 nM.

On to `COc1cc(-c2ccc3nc(Nc4cnccn4)sc3n2)cnc1OC`, for which the Ki on PIK3CG (human) is less than 100 nM.

Consider `CCCn1ccc(Nc2nc3ccc(-c4cnc(OC)c(OC)c4)cc3s2)n1`, for which the inhibition constant Ki at PIK3CG (human) and on PIK3CA (human) was less than 100 nM throughout.

Turning to `FC(F)(F)c1cncc(-c2ccc3nc(Nc4cnn(CC5CCCO5)c4)sc3c2)c1` (centres undefined), the Ki at PIK3CG (human) and on PIK3CA (human) was less than 100 nM each time.

For the compound `COc1cncc(-c2ccc3nc(Nc4cncc(C)n4)sc3c2)c1`, the Ki at PIK3CG (human) and at PIK3CA (human) was less than 100 nM throughout.

For `CCOc1cc(-c2ccc3nc(Nc4cnccn4)sc3c2)cnc1OCC`, the Ki on PIK3CG (human) and at PIK3CA (human) was less than 100 nM in each case.

In the case of `COCCn1cc(Nc2nc3ccc(-c4cncc(C(F)(F)F)c4)cc3s2)cn1`, the inhibitory constant (Ki) on PIK3CG (human) and at PIK3CA (human) was less than 100 nM throughout.

As to `CCOc1ncc(-c2ccc3nc(Nc4cnccn4)sc3n2)cc1OC`, the Ki on PIK3CG (human) and on PIK3CA (human) was less than 100 nM throughout.

Regarding `COc1cc(-c2ccc3nc(Nc4cnccn4)sc3c2)cnc1OC`, the Ki on PIK3CG (human) and on PIK3CA (human) was less than 100 nM throughout.

`COc1cncc(-c2ccc3nc(Nc4ccncn4)sc3c2)c1`: the Ki on PIK3CG (human) and on PIK3CA (human) was less than 100 nM throughout.

Compound `COc1cncc(-c2ccc3nc(Nc4cccc(S(C)(=O)=O)c4)sc3c2)c1` gave a Ki at PIK3CG (human) of less than 100 nM.

For `COc1ncc(-c2ccc3nc(Nc4cnccn4)sc3c2)cc1OC(C)C`, the Ki on PIK3CG (human) and on PIK3CA (human) was less than 100 nM throughout.

Regarding `CCOc1cc(-c2ccc3nc(Nc4cccnc4)sc3n2)cnc1OCC`, on PIK3CG (human), the Ki is less than 100 nM.

On to `COc1cc(-c2ccc3nc(Nc4cnccn4)sc3c2)cnc1C`, for which the Ki on PIK3CG (human) and at PIK3CA (human) was less than 100 nM in each case.

For the compound `CNC(=O)Cc1ccc(Nc2nc3ccc(-c4cncc(OC)c4)cc3s2)cc1`, on PIK3CG (human), the Ki is less than 100 nM.

In the case of `COc1cc(-c2ccc3nc(Nc4nccc(C)n4)sc3c2)cnc1OC`, the Ki on PIK3CG (human) and on PIK3CA (human) was less than 100 nM each time.

With `COc1cncc(-c2ccc3nc(Nc4cccc(C)n4)sc3c2)c1`, the Ki on PIK3CG (human) was less than 100 nM.

Turning to `COc1cncc(-c2ccc3nc(Nc4ccc(N)cc4)sc3c2)c1`, the Ki on PIK3CG (human) is less than 100 nM.

`COc1cc(-c2ccc3nc(Nc4ccncn4)sc3c2)cnc1OC`: the Ki at PIK3CG (human) and on PIK3CA (human) was less than 100 nM in each case.

As to `COc1cccc(Nc2nc3ccc(-c4cnc(OC)c(OC)c4)cc3s2)n1`, the Ki at PIK3CG (human) and at PIK3CA (human) was less than 100 nM throughout.

For the compound `COc1cncc(-c2ccc3nc(Nc4ccc(CC(N)=O)cc4)sc3c2)c1`, on PIK3CG (human), the Ki was less than 100 nM.

For `O=C(O)Cn1cc(Nc2nc3ccc(-c4cncc(C(F)(F)F)c4)cc3s2)cn1`, the Ki on PIK3CG (human) and on PIK3CA (human) was less than 100 nM throughout.

In the case of `COc1cncc(-c2ccc3nc(Nc4ccc5nc[nH]c5c4)sc3c2)c1`, the Ki on PIK3CG (human) and on PIK3CA (human) was less than 100 nM throughout.

With `COc1cc(-c2ccc3nc(Nc4ccn(C)n4)sc3c2)cnc1OC`, the Ki at PIK3CG (human) and at PIK3CA (human) was less than 100 nM throughout.

Consider `COc1cncc(-c2ccc3nc(Nc4cccnc4)sc3n2)c1`, for which the inhibition constant Ki at PIK3CG (human) is less than 100 nM.

On to `COc1cc(-c2ccc3nc(Nc4cccc(C)n4)sc3c2)cnc1OC`, for which the Ki on PIK3CG (human) and on PIK3CA (human) was less than 100 nM throughout.

`FC(F)(F)c1cncc(-c2ccc3nc(Nc4cccnc4)sc3n2)c1`: the Ki on PIK3CG (human) was less than 100 nM.

For `COc1cncc(-c2ccc3nc(Nc4cc[nH]n4)sc3c2)c1`, the Ki on PIK3CG (human) and on PIK3CA (human) was less than 100 nM in each case.

For `COc1cncc(-c2ccc3nc(Nc4cccc(NC(C)=O)c4)sc3c2)c1`, at PIK3CG (human), the Ki is less than 100 nM.

For the compound `COc1cc(-c2ccc3nc(Nc4cccnc4)sc3n2)cnc1OC`, the Ki on PIK3CG (human) and at PIK3CA (human) was less than 100 nM each time.

For `COc1cc(-c2ccc3nc(Nc4cnccn4)sc3c2)cnc1N`, the Ki at PIK3CG (human) and at PIK3CA (human) was less than 100 nM in each case.

Regarding `CCN(CC)C(=O)c1cccc(Nc2nc3ccc(-c4cncc(OC)c4)cc3s2)c1`, on PIK3CG (human), the Ki was less than 100 nM.

`COc1cncc(-c2ccc3nc(Nc4ccc5c(c4)N(C(C)=O)CC5)sc3c2)c1`: the Ki on PIK3CG (human) was less than 100 nM.

Regarding `COc1ncc(-c2ccc3nc(Nc4cnccn4)sc3n2)cc1OC(C)C`, the Ki on PIK3CG (human) and on PIK3CA (human) was less than 100 nM throughout.

Take `COc1cncc(-c2ccc3nc(Nc4ccc(C)nn4)sc3c2)c1`: the Ki at PIK3CG (human) and on PIK3CA (human) was less than 100 nM each time.

Regarding `COc1cncc(-c2ccc3nc(Nc4nc(C)cs4)sc3c2)c1`, the Ki on PIK3CG (human) is less than 100 nM.

As to `COc1cncc(-c2ccc3nc(Nc4cccc(CO)c4)sc3c2)c1`, at PIK3CA (human), the Ki was less than 100 nM.

Take `COc1cncc(-c2ccc3nc(Nc4cnccn4)sc3c2)c1`: the Ki at PIK3CG (human) and on PIK3CA (human) was less than 100 nM in each case.

Regarding `CCOc1cc(-c2ccc3nc(Nc4cnccn4)sc3c2)cnc1OC`, the Ki at PIK3CG (human) and at PIK3CA (human) was less than 100 nM throughout.

On to `COc1cc(-c2ccc3nc(Nc4ncc(C)s4)sc3c2)cnc1OC`, for which the Ki at PIK3CG (human) and on PIK3CA (human) was less than 100 nM in each case.

For `COc1cncc(-c2ccc3nc(Nc4nccs4)sc3c2)c1`, the Ki on PIK3CG (human) and at PIK3CA (human) was less than 100 nM each time.

With `CCOc1cc(-c2ccc3nc(Nc4cnccn4)sc3n2)cnc1OCC`, the Ki on PIK3CG (human) and on PIK3CA (human) was less than 100 nM throughout.

`COc1cncc(-c2ccc3nc(Nc4nncs4)sc3c2)c1` registered an inhibition constant Ki on PIK3CG (human) of less than 100 nM.

With `CCOc1ncc(-c2ccc3nc(Nc4cccnc4)sc3n2)cc1OC`, the Ki at PIK3CG (human) and on PIK3CA (human) was less than 100 nM each time.

In the case of `COc1ncc(-c2ccc3nc(Nc4cccnc4)sc3n2)cc1OC(C)C`, the Ki on PIK3CG (human) and at PIK3CA (human) was less than 100 nM each time.

For `COc1cc(-c2ccc3nc(Nc4ccccn4)sc3c2)cnc1OC`, the Ki at PIK3CG (human) and at PIK3CA (human) was less than 100 nM each time.

For the compound `COc1cc(-c2ccc3nc(Nc4cncc(C)n4)sc3c2)cnc1OC`, the Ki at PIK3CG (human) and on PIK3CA (human) was less than 100 nM each time.

Regarding `FC(F)(F)c1cncc(-c2ccc3nc(Nc4cnccn4)sc3c2)c1`, the Ki at PIK3CA (human) is less than 100 nM.

Consider `COc1cncc(Nc2nc3ccc(-c4cnc(OC)c(OC)c4)cc3s2)n1`, for which the Ki on PIK3CG (human) and on PIK3CA (human) was less than 100 nM throughout.

On to `CNC(=O)Cn1cc(Nc2nc3ccc(-c4cncc(C(F)(F)F)c4)cc3s2)cn1`, for which the Ki at PIK3CG (human) and on PIK3CA (human) was less than 100 nM throughout.

With `Cc1ccc(Nc2nc3ccc(-c4cncc(C(F)(F)F)c4)cc3s2)nn1`, the Ki on PIK3CG (human) is less than 100 nM.

Regarding `COc1cc(-c2ccc3nc(Nc4cc[nH]n4)sc3c2)cnc1OC`, the Ki on PIK3CG (human) and at PIK3CA (human) was less than 100 nM throughout.

`Cn1cc(Nc2nc3ccc(-c4cncc(C(F)(F)F)c4)cc3s2)cn1` came in with a Ki on PIK3CG (human) of less than 100 nM.

`COc1cncc(-c2ccc3nc(Nc4cccnc4)sc3c2)c1`: the Ki at PIK3CG (human) was less than 100 nM.

Take `COc1cc(-c2ccc3nc(Nc4nnc(C)s4)sc3c2)cnc1OC`: the inhibition constant (Ki) on PIK3CG (human) and on PIK3CA (human) was less than 100 nM throughout.

`COc1cncc(-c2ccc3nc(Nc4ccc(N(C)C(C)=O)cc4)sc3c2)c1` yielded a Ki on PIK3CG (human) of less than 100 nM.

For `Nc1ccc(Nc2nc3ccc(-c4cncc(C(F)(F)F)c4)cc3s2)cn1`, at PIK3CG (human), the Ki was less than 100 nM.

Regarding `COc1cncc(-c2ccc3nc(Nc4ccccn4)sc3c2)c1`, at PIK3CG (human), the inhibitory constant (Ki) is less than 100 nM.

Take `CCn1cc(Nc2nc3ccc(-c4cncc(C(F)(F)F)c4)cc3s2)cn1`: the Ki at PIK3CA (human) is less than 100 nM.

With `COc1cncc(-c2ccc3nc(Nc4ccn(C)n4)sc3c2)c1`, the Ki at PIK3CG (human) and at PIK3CA (human) was less than 100 nM in each case.

As to `CCOc1ncc(-c2ccc3nc(Nc4cnccn4)sc3c2)cc1OC`, the Ki at PIK3CG (human) and on PIK3CA (human) was less than 100 nM in each case.

`COc1cncc(-c2ccc3nc(Nc4ccc(Cl)nn4)sc3c2)c1` gave a Ki on PIK3CG (human) of less than 100 nM.

For `CCOc1cncc(Nc2nc3ccc(-c4cnc(OC)c(OC)c4)cc3s2)n1`, the Ki at PIK3CG (human) and on PIK3CA (human) was less than 100 nM in each case.

`CCc1ncc(-c2ccc3nc(Nc4cnccn4)sc3c2)cc1OC` registered a Ki at PIK3CG (human) of less than 100 nM.
